Counter-ions that a name gives are not always drawn.
Columns and labels:
[1] = antioxidant effect on fish-meal samples, Warburg apparatus; conditions: 40 g. of fish meal + 0.04 g. of antioxidant; for Oxygen Uptake (decrease of O2 pressure, mmHg): 29° C., control 19.5; for Peroxide Number (calculated for 1 g. of fish meal): treated with oxygen, control 7.83
Method: The antioxidant effect of the new substances shown in foodstuffs and nutriments was investigated on fish-meal samples. […] In these experiments the oxygen uptake of fish-meal samples containing the various antioxidants was determined in a Warburg apparatus at 29° C., and the results were compared with those measured on samples containing no antioxidant. The peroxide number of samples treated with oxygen was also determined.

[2] = tested on: encephalomalacia of poultries; conditions: versus EMQ; cited from earlier work
[3] = cited from earlier work
[4] = LD50 (Korber method, modified by Cornfield); conditions: in vivo
Description: The LD50 values of BHT and EMQ are, on the other hand, the following -- measured according to the Korber method, modified by Cornfield: […]

[5] = tested on: animals; conditions: longer period, dose of 0.56 g./kg.; cited from earlier work
[6] = tested on: rats; conditions: 14 days, 0.50 g./kg.; cited from earlier work
[7] = solubility; format: physicochemical
[8] = tested on: rats; conditions: rat, in vivo
Description: (§1) Since the novel compounds are completely nontoxic, they can be used with great advantage in animal husbandry and in the food industry, as well as in therapy. On the basis of the investigations carried out on the acute and chronic toxicity of these new active agents, it can be stated that they are completely free of the disadvantages of the hitherto-known antioxidants mentioned above, first of all as regards their use in therapy.

[9] = tested on: rats; assay: continuous administration of XAX for three weeks / 90 days; format: in vivo
Description: as §1

[10] = tested on: serum cholesterol level; assay: serum cholesterol of cholesterol-treated rabbits; format: in vivo; conditions: 1 g. of cholesterol per day, 0.06 g./kg. XAX daily for 70 or 105 days
Method: Due to this fact they can also be used for the prophylaxis and treatment of arteriosclerois. This effect of the new substances was investigated on rabbits treated with 1 g. of cholesterol per day. The animals were treated for 70 or 105 days with daily doses of 0.06 g./kg. of XAX. […] Using the hitherto-known antioxidants, this very favorable and important effect could not be reached at all.

[11] = tested on: malignant tumors; assay: appearance of malignant tumors in animals irradiated with minimum doses for a long period; format: in vivo; conditions: minimum irradiation doses for a long period, versus irradiated controls without XAX
Description: Another important and unexpected property of the new substances is that they exert radiosensibilizing effect. […] On the basis of this property, the new compounds can also be used for the potentiating of the effect of irradiation therapy.

## Cc1cc(C(C)(C)C)c(O)c(C(C)(C)C)c1 [BHT]
[1]
  Oxygen Uptake (decrease of O2 pressure, mmHg): 16.5 mmHg
  Peroxide Number (calculated for 1 g. of fish meal): 3.42
[2]
  activity in encephalomalacia of poultries: far lower activity than EMQ
[3]; aftereffect
  anophthalmia (teratogeneous effect): the appearance of anophthalmia was observed
[3]; in vivo
  cholesterol-synthesis in the liver and endogenous epoxidation: the cholesterol-synthesis in the liver as well as the endogenous epoxidation increases
  endogenous production of fatty acids and β-oxidation: stimulates the endogenous production of fatty acids and β-oxidation
  gestation period: increases the gestation period

## CCOc1ccc2c(c1)C(C)=CC(C)(C)N2 [EMQ, 6-ethoxy-2,2,4-trimethyl-1,2-dihydroquinoline]
[4]
  LD50: 2230 ± 300 mg/kg
[1]
  Oxygen Uptake (decrease of O2 pressure, mmHg): 23.5 mmHg
  Peroxide Number (calculated for 1 g. of fish meal): 2.87
[5]
  appetite: may cause appetite lowering
  gain in weight: lowers the gain in weight
[6]
  appetite of the animals: the appetite of the animals was lowered
  size of the liver: an increase in size of the liver was observed

## CC1=CC(C)(C)Nc2ccc(Cc3ccc4c(c3)C(C)=CC(C)(C)N4)cc21 [Example 8, bis-(2,2,4-trimethyl-1,2,-dihydroquinolyl-6)-methane]
[7]
  solubility in water and alcohol: well soluble in water and alcohol

## CC1=CC(C)(C)Nc2ccc(Cc3ccc4c(c3)C(C)=CC(C)(C)N4)cc21 [Example 9, bis-(2,2,4-trimethyl-1,2-dihydroquinolyl-6)-methane]
[7]
  solubility in water and alcohol: soluble in water and alcohol

## CC1=CC(C)(C)Nc2ccc(Cc3ccc4c(c3)C(C)=CC(C)(C)N4)cc21 [XAX, bis-(2,2,4-trimethyl-1,2-dihydroquinolyl-6)-methane]
[8]
  toxic symptoms: no toxic symptoms
[9]; daily doses of 0.25 mg./kg., three weeks
  damaging of tissues or cells: no damaging of tissues or cells could be observed
[9]; rats, 90 days, same dose
  weight gain and blood picture: Neither the weight gain nor the blood picture of the animals was harmfully affected
[9]; rats, 90 days, same dose, versus untreated animals
  weight gain of some organs: no excessive weight gain of some organs of the animals could be observed
[9]; rats, same dose (0.25 mg./kg. daily), 90 days
  harmful effects: No harmful effects could be observed
[1]
  Oxygen Uptake (decrease of O2 pressure, mmHg): 11.5 mmHg
  Peroxide Number (calculated for 1 g. of fish meal): 1.54
[10]
  cholesterol level of the blood: the cholesterol level of the blood decreased to a great extent
[11]
  appearance of malignant tumors: could be suppressed

## CC1=CC(C)(C)Nc2ccc(Cc3ccc4c(c3)C(C)=CC(C)(C)N4)cc21 [sulfuric acid salt of XAX]
[7]
  solubility in water and alcohol: soluble in water and alcohol

From patent US4025631A, “Dihydroquinoline derivatives of antioxidant activity” (priority 1971, dated 1977)
